According to US12139461B1, “Piperidine compounds as PDE5 inhibitors” (KING SAUD UNIVERSITY, priority 2024, dated 2024):
Where “and” joins values, the source holds several entries; their conditions need not be identical. Equal values may be shown once. Values belong to the compound of their own block, whether it stands above or below them.

How the values were obtained:
[1] = target: Phosphodiesterase type 5 (PDE5) (Homo sapiens (Human), UniProt O76074); assay: In vitro phosphodiesterase type 5 (PDE5) inhibition assay; format: biochemical; settings: purified PDE5, IMAP FP assay
male rats = assay: Copulatory behavior testing; format: in vivo, rat; settings: 5 mg/kg oral; for mean intromission interval (MII): MII=EL/IF
Description: Sexually mature Wistar albino male and female rats weighing 150-180 g (10-14 weeks old) were used in our study. Males were trained for sexual behavior with estrus females, that is, two hours a day for one week, before the investigations. Females were brought into the estrous phase artificially by sequential injection of estradiol benzoate (Sigma) (25 μg/animal) and progesterone (Sigma) (250 μg/animal) subcutaneously, 48 and 4 hours before pairing, respectively. Only those sexually active animals were used subsequently in the study. Sexually active rats were isolated and housed in separate cages at room temperature (24±2° C.) on a reversed day/night cycle with a relative humidity of 50-55% during the experimental period. All sexual studies were performed in a calm laboratory condition under subdued light. For the toxicity study, adult Wistar albino male rats were used separately. Rats were obtained from the Experimental Animal Care Center, College of Pharmacy, King Saud University. Animals were fed with a standard pellet diet and provided water ad libitum. All experiments were performed per the protocols and recommendations of the NIH Guide for the Care and Use of Laboratory Animals and the legal requirements of King Saud University for investigations on humans and animals.
Based on a preliminary study to select the appropriate dose for the promising synthesized compounds, the compounds were administered separately to sexually experienced male rats by oral gavage at 5 mg/kg in a 0.5% sodium carboxymethyl cellulose (CMC) vehicle. […] All solutions were freshly prepared at a concentration that allowed the administration of 1 ml/kg.
After drug treatment, rats were housed separately in transparent cages for acclimation. Thirty minutes after drug treatment, a sexually receptive female rat with estrous phase was introduced in each cage for 30 min and the following parameters of the copulatory behavior were recorded: namely mount latency (ML; time from introduction of the female until the first mount with or without penile insertion, it measures the degree of arousal or sexual interest or libido of the male), mount frequency (MF; the number of mounts until ejaculation, it is a measure of the degree of the male's sexual interest or libido), intromission latency (IL; time from introduction of the female until the first intromission, it measures the degree of sexual excitement and erection), intromission frequency (IF; number of vaginal penetrations until ejaculation, it measures the degree of erection), ejaculation latency (EL; time from the first intromission until ejaculation, it determines the excellent organization of copulation in rats) and post-ejaculatory interval (PEI; time interval between an ejaculation and the following first mount, it measures the refractory period that comes after ejaculation). Latency values represent the number of seconds that elapses from the introduction of the female into the copulatory arena until the male executes the first mount, intromission or ejaculation. Frequency values represent the number of ejaculations, mounts or intromission recorded during the copulatory test.
Depending on these parameters, the following can be calculated: Copulatory efficiency (CE)=(IF/MF)×100 and mean intromission interval (MII)=EL/IF as previously described (Aydogan F. et al., J Ethnopharmacol 257 (2020) 112868; Besong E B. et al., Biochem Res Int 2018 (2018) 2869727, the contents of each of which are hereby incorporated by reference in their entirety). Experiments were repeated blindly three times using new fresh (unused) animals in each experiment.

[2] = test system: sexually experienced male rats; assay: Penile erection index (noncontact erection test); format: in vivo, rat; settings: Rattus norvegicus, oral, linear regression of proportion of responding rats, read-out: effective dose ED50 (dose required to give 50% responding rats)
Description: The penile erection index is an established means of determining the erection promoting properties of a substance. Determination of penile erection in a noncontact position was calculated as reported previously (Haripriya V M. et al., Andrologia 51 (2019) e13180; Sharma V. et al., J Ethnopharmacol 143 (2012) 201-206, the contents of each of which are hereby incorporated by reference in their entirety). The sexually experienced male rats of all groups were given the treatment 30 minutes before experimentation. The number of animals for each dose was ten rats in each experiment. […] The results shown are the average of three separate experiments. Control animals were given 0.5% CMC as a vehicle.
The rats of each group were placed in the observation cages (five at a time) divided into half by two sheets of metal mesh, preventing contact but allowing auditory, visual and olfactory stimuli. After a 5-min adaptation period, the test was started by placing an estrus female on the other side of the cage. Penile erection was recorded when the rats bent down to lick their erect penis. Homosexual mounting was also counted when a male rat mounted another male rat performing pelvic thrusts with or without a penile erection. […] The effective dose ED50 (the dose required to give 50% responding rats) for examined compounds was calculated using linear regression analysis by GraphPad software with the proportion of responding rats as the input data and expressed as μmol/kg.

Compound: O=S(=O)(c1ccccc1)N1CCC(c2ccccc2)CC1 [Compound C8]
- IC50 [1]: 0.0542 ± 0.00106 µM

Compound: NS(=O)(=O)c1ccc(NC(=O)CN2CCC(Cc3ccccc3)CC2)cc1 [Compound C13, 2-(4-Benzylpiperidin-1-yl)-N-(4-sulfamoylphenyl)acetamide]
- IC50 [1]: 0.221 ± 0.00432 µM

Compound: CC(C(=O)Nc1ccc(F)cc1)N1CCC(Cc2ccccc2)CC1 (stereo not shown) [Compound C17]
- IC50 [1]: 0.279 ± 0.00543 µM

Compound: COc1ccccc1S(=O)(=O)N1CCC(c2ccccc2)CC1 [Compound C3, 1-((2-Methoxyphenyl)sulfonyl)-4-phenylpiperidine]
- melting point: 173 to 175 °C
- IC50 [1]: 0.0852 ± 0.00166 µM

Compound: COc1ccc(S(=O)(=O)N2CCC(c3ccccc3)CC2)c(OC)c1 [Compound C1, 1-((2,4-Dimethoxyphenyl)sulfonyl)-4-phenylpiperidine]
- melting point: 191 to 193 °C
- IC50 [1]: 0.106 ± 0.00207 µM

Compound: CC(C)c1cc(C(C)C)c(S(=O)(=O)N2CCC(c3ccccc3)CC2)c(C(C)C)c1 [Compound C7, 1-((2,4,6-tri-isiopropylphenyl)sulfonyl)-4-phenylpiperidine]
- IC50 [1]: 0.52 ± 0.0101 µM

Compound: COc1ccc(NC(=O)CN2CCC(Cc3ccccc3)CC2)cc1 [Compound C15, 2-(4-Benzylpiperidin-1-yl)-N-(4-methoxyphenyl)acetamide]
- melting point: 61 to 63 °C
- IC50 [1]: 0.184 ± 0.0036 µM

Compound: O=C(CN1CCC(Cc2ccccc2)CC1)NCc1ccc(F)cc1 [Compound C16, 2-(4-Benzylpiperidin-1-yl)-N-(4-fluorobenzyl)acetamide]
- melting point: 72 to 74 °C
- IC50 [1]: 0.484 ± 0.00944 µM

Compound: COc1ccc(S(=O)(=O)N2CCC(c3ccccc3)CC2)cc1OC [Compound C2, 1-((3,4-Dimethoxyphenyl)sulfonyl)-4-phenylpiperidine]
- melting point: 207 to 209 °C
- IC50 [1]: 0.185 ± 0.00361 µM

Compound: O=S(=O)(c1ccccc1)N1CCC(Cc2ccccc2)CC1 [Compound C18]
- IC50 [1]: 0.112 ± 0.00219 µM

Compound: CCCc1nn(C)c2c(=O)[nH]c(-c3cc(S(=O)(=O)N4CCN(C)CC4)ccc3OCC)nc12 [sildenafil, reference compound]
- ejaculation latency (EL) (male rats): 426.6 s
- intromission frequency (IF) (male rats): 17.8
- intromission latency (IL) (male rats): 135.1 s
- mount frequency (MF) (male rats): 26.6
- mount latency (ML) (male rats): 68.5 s
- post-ejaculatory interval (PEI) (male rats): 294.5 s
- mean intromission interval (MII) (male rats): 24.3
- ED50 [2]: 8.52 µmol/kg

Compound: Cc1ccc(S(=O)(=O)N2CCC(c3ccccc3)CC2)cc1 [Compound C10]
- IC50 [1]: 0.133 ± 0.00259 µM

Compound: CC(C(=O)Nc1ccc(S(N)(=O)=O)cc1)N1CCC(Cc2ccccc2)CC1 (stereo not shown) [Compound C12, 2-(4-Benzylpiperidin-1-yl)-N-(4-sulfamoylphenyl)-2-methylacetamide]
- IC50 [1]: 0.874 ± 0.0171 µM

Compound: O=S(=O)(c1ccc(Cl)cc1)N1CCC(c2ccccc2)CC1 [Compound C5]
- IC50 [1]: 0.675 ± 0.0132 µM

Continued, in another order:

- IC50 [1]: 0.25 ± 0.00488 µM
Compound: O=S(=O)(c1ccc(Cl)cc1)N1CCC(Cc2ccccc2)CC1 [Compound C29]

- IC50 [1]: 0.0605 ± 0.00118 µM
Compound: COc1cc(CNC(=O)CN2CCC(Cc3ccccc3)CC2)cc(OC)c1OC [Compound C34, 2-(4-Benzylpiperidin-1-yl)-N-(3,4,5-trimethoxybenzyl)acetamide]

- melting point: 70 to 72 °C
- IC50 [1]: 0.107 ± 0.00209 µM
Compound: Cc1cc(C)c(S(=O)(=O)N2CCC(Cc3ccccc3)CC2)c(C)c1 [Compound C26, 4-Benzyl-1-(mesitylsulfonyl)piperidine]

- melting point: 95 to 97 °C
- IC50 [1]: 0.207 ± 0.00403 µM
Compound: COc1ccccc1S(=O)(=O)N1CCC(Cc2ccccc2)CC1 [Compound C23, 4-Benzyl-1-((2-methoxyphenyl)sulfonyl)piperidine]

- melting point: 89 to 91 °C
- IC50 [1]: 0.0998 ± 0.00194 µM
Compound: COc1ccc(CNC(=O)CN2CCC(Cc3ccccc3)CC2)cc1 [Compound C33, 2-(4-Benzylpiperidin-1-yl)-N-(4-methoxybenzyl)acetamide]

- IC50 [1]: 0.0749 ± 0.00146 µM
Compound: O=C(CN1CCC(Cc2ccccc2)CC1)NCc1ccccc1 [Compound C31]

- melting point: 166 to 168 °C
- IC50 [1]: 0.102 ± 0.00199 µM
Compound: O=S(=O)(c1ccc(Cl)c(Cl)c1)N1CCC(Cc2ccccc2)CC1 [Compound C19, 4-Benzyl-1-((3,4-dichlorophenyl)sulfonyl)piperidine]

- IC50 [1]: 0.0563 µM and 0.0564 µM
Compound: COc1ccc(S(=O)(=O)N2CCC(Cc3ccccc3)CC2)c(OC)c1 [Compound C24, 1-((2,4-Dimethoxyphenyl)sulfonyl)-4-Benzylpiperidine]
- efficacy in improving copulatory behavior (male rats): more pronounced
- ejaculation latency (EL) (male rats): 377.6 s
- intromission frequency (IF) (male rats): 9.3
- intromission latency (IL) (male rats): 193.8 s
- mount frequency (MF) (male rats): 17.3
- mount latency (ML) (male rats): 85.0 s
- post-ejaculatory interval (PEI) (male rats): 370.0 s
- copulatory efficiency (CE) (male rats; CE=(IF/MF)x100): 54.0%
- mean intromission interval (MII) (male rats): 41.2

- IC50 [1]: 0.143 ± 0.00278 µM
Compound: CC(C)c1cc(C(C)C)c(S(=O)(=O)N2CCC(Cc3ccccc3)CC2)c(C(C)C)c1 [Compound C27, 1-((2,4,6-Tri-isopropylphenyl)sulfonyl)-4-Benzylpiperidine]

- IC50 [1]: 0.203 ± 0.00395 µM
Compound: O=C(CN1CCC(Cc2ccccc2)CC1)Nc1ccc(F)cc1 [Compound C32]

- IC50 [1]: 0.0565 µM
Compound: Cc1ccc(S(=O)(=O)N2CCC(Cc3ccccc3)CC2)cc1 [Compound C28]
- efficacy in improving copulatory behavior (male rats): more pronounced
- ejaculation latency (EL) (male rats): 332.8 s
- intromission frequency (IF) (male rats): 9.1
- intromission latency (IL) (male rats): 195.5 s
- mount frequency (MF) (male rats): 17.5
- mount latency (ML) (male rats): 94.6 s
- post-ejaculatory interval (PEI) (male rats): 393.3 s
- copulatory efficiency (CE) (male rats; CE=(IF/MF)x100): 52.3%
- mean intromission interval (MII) (male rats): 36.6

- IC50 [1]: 0.0633 µM
Compound: COc1ccc(S(=O)(=O)N2CCC(Cc3ccccc3)CC2)cc1OC [Compound C20]
- ML, IL, IF, MF and EL compared to untreated controls (male rats): not significantly different
- ejaculation latency (EL) (male rats): prolonged
- intromission frequency (IF) (male rats): 7.6
- intromission latency (IL) (male rats): 229.1 s
- mount frequency (MF) (male rats): 16.0
- mount latency (ML) (male rats): 95.5 s
- post-ejaculatory interval (PEI) (male rats): 401.8 s
- copulatory efficiency (CE) (male rats; CE=(IF/MF)x100): did not alter
- copulatory efficiency (CE) (male rats; CE=(IF/MF)x100, listed as C 20): 48.5%
- mean intromission interval (MII) (male rats): did not alter
- mean intromission interval (MII) (male rats; listed as C 20): 44.7
- ejaculation latency (EL) (male rats; listed as C 20): 325.1 s

- IC50 [1]: 0.059 µM
Compound: O=C(CN1CCC(Cc2ccccc2)CC1)Nc1ccccc1 [Compound C30]
- ML, IL, IF, MF and EL compared to untreated controls (male rats): not significantly different
- ejaculation latency (EL) (male rats): 324.6 s
- intromission frequency (IF) (male rats): 6.8
- intromission latency (IL) (male rats): Weak but significant reductions
- mount frequency (MF) (male rats): 14.8
- mount latency (ML) (male rats): 95.5 s
- post-ejaculatory interval (PEI) (male rats): 411.8 s
- copulatory efficiency (CE) (male rats; CE=(IF/MF)x100): did not alter
- copulatory efficiency (CE) (male rats; CE=(IF/MF)x100, listed as C 30): 46.8%
- mean intromission interval (MII) (male rats): did not alter
- mean intromission interval (MII) (male rats; listed as C 30): 49.2
- intromission latency (IL) (male rats; listed as C 30): 215.3 s
